Results on 38 compounds are retold here after US20060089395A1, “Nf-kb activation inhibitors” (priority 2002, published 2006).

Each structure is given as a SMILES string.

The test system of this test is NF-κ B. Put plainly: Inhibitory activity of NF-κ B activation, luciferase reporter assay in HepG2 under TNF-α stimulation. The test is classed as cell-based, human. The following applies: HepG2, TNF-α (40 ng/ml), 4 hours; for inhibition at 10 µg/mL / inhibition at 1 µg/mL: Homo sapiens; for inhibition at 10 µg/mL / Inhibitory Ratio of NF-κ B Activation(%) Drug Concentration 10 μg/mL: 10 μg/mL; for inhibition at 10 µg/mL: read-out: Inhibitory Ratio of NF-κ B Activation(%) Drug Concentration 10 μg/mL; for inhibition at 1 µg/mL / Inhibitory Ratio of NF-κ B Activation(%) Drug Concentration 1 μg/mL: 1 μg/mL; for inhibition at 1 µg/mL: read-out: Inhibitory Ratio of NF-κ B Activation(%) Drug Concentration 1 μg/mL. An outline of the steps:
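Readout is firefly luciferase luminescence, expressed as inhibition versus compound-free wells. Before this, HepG2 cells carrying a transiently transfected 5×NF-κB-site luciferase plasmid (6–24 h post-transfection) received test compound plus TNF-α (40 ng/ml) for 4 h.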

With `Cc1nc(NC(=O)c2cc(Br)ccc2O)sc1-c1cccc(C(F)(F)F)c1` [Compound No. 194, 5-Bromo-N-{4-methyl-5-[3-(trifluoromethyl)phenyl]thiazol-2-yl}-2-hydroxybenzamide], the inhibition at 10 µg/mL was 71.7%. For the compound `CCc1sc(NC(=O)c2cc(Br)ccc2O)nc1C(C)(C)C` [Compound No. 195, 5-Bromo-N-{4-[(1,1-dimethyl)ethyl]-5-ethylthiazol-2-yl}-2-hydroxybenzamide], the inhibition at 1 µg/mL was determined as 90.5% and the inhibition at 10 µg/mL stood at 98.1%. Turning to `CCc1nc(NC(=O)c2cc(Br)ccc2O)sc1-c1ccccc1` [Compound No. 196], the “Inhibitory Ratio of NF-κ B Activation(%) Drug Concentration 1 μg/mL” value is listed as 28.8% and the “Inhibitory Ratio of NF-κ B Activation(%) Drug Concentration 10 μg/mL” value is given as 87.6%.

On to `CC(C)c1nc(NC(=O)c2cc(Br)ccc2O)sc1-c1ccccc1` [Compound No. 197, 5-Bromo-N-(4-isopropyl-5-phenylthiazol-2-yl)-2-hydroxybenzamide], for which the inhibition at 1 µg/mL worked out at 70.1% and the inhibition at 10 µg/mL worked out at 96.1%. As to `CCCCc1nc(NC(=O)c2cc(Br)ccc2O)sc1-c1ccccc1` [Compound No. 198, 5-Bromo-N-(4-butyl-5-phenylthiazol-2-yl)-2-hydroxybenzamide], the inhibition at 1 µg/mL turned out to be 46.1% and the inhibition at 10 µg/mL was 88.7%. Regarding `CC(=O)Oc1ccc(Cl)cc1C(=O)Nc1nc(C(C)(C)C)c(C(=O)C(C)(C)C)s1` [Compound No. 200], the “Inhibitory Ratio of NF-κ B Activation(%) Drug Concentration 1 μg/mL” value was found to be 95.0% and the “Inhibitory Ratio of NF-κ B Activation(%) Drug Concentration 10 μg/mL” value is given as 97.7%. As for `CCOC(=O)c1sc(NC(=O)c2cc(Br)ccc2O)nc1C(C)(C)C` [Compound No. 202, 2-(5-Bromo-2-hydroxybenzoyl)amino-4-[(1,1-dimethyl)ethyl]thiazole-5-carboxylic acid ethyl ester], the inhibition at 1 µg/mL was 84.5% and the inhibition at 10 µg/mL is 92.4%. As to `CC(C)(C)c1nc(NC(=O)c2cc(Br)ccc2O)sc1N1CCCCC1` [Compound No. 204, 5-Bromo-N-{4-[(1,1-dimethyl)ethyl]-5-piperidinothiazol-2-yl)-2-hydroxybenzamide], the inhibition at 1 µg/mL stood at 93.6% and the inhibition at 10 µg/mL was 97.8%. For `CC(C)(C)c1nc(NC(=O)c2cc(Br)ccc2O)sc1N1CCOCC1` [Compound No. 205, 5-Bromo-N-{4-[(1,1-dimethyl)ethyl]-5-morpholinothiazol-2-yl}-2-hydroxybenzamide], in that order: 87.8% and 96.8%.

For the compound `CN1CCN(c2sc(NC(=O)c3cc(Br)ccc3O)nc2C(C)(C)C)CC1` [Compound No. 206, 5-Bromo-N-{4-[(1,1-dimethyl)ethyl]-5-(4-methylpiperazin-1-yl)thiazol-2-yl)-2-hydroxybenzamide], the inhibition at 1 µg/mL is 36.3% and the inhibition at 10 µg/mL came to 89.6%. Consider `O=C(Nc1nc(-c2ccccc2)cs1)c1cc(Br)ccc1O` [Compound No. 208], for which the “Inhibitory Ratio of NF-κ B Activation(%) Drug Concentration 10 μg/mL” value is reported as 78.8%. Still for that read-out and setting: under `O=C(O)Cc1sc(NC(=O)c2cc(Br)ccc2O)nc1-c1ccccc1` [Compound No. 210] stands 72.1%; under `O=C(Nc1nc(-c2ccccc2)c(-c2ccccc2)s1)c1cc(Br)ccc1O` [Compound No. 211], 67.0%. On to `O=C(Nc1nc(Cc2ccccc2)c(-c2ccccc2)s1)c1cc(Br)ccc1O` [Compound No. 212], for which the “Inhibitory Ratio of NF-κ B Activation(%) Drug Concentration 1 μg/mL” value was 79.7% and the “Inhibitory Ratio of NF-κ B Activation(%) Drug Concentration 10 μg/mL” value worked out at 95.0%. For `O=C(Nc1nc(C(F)(F)F)c(-c2ccccc2)s1)c1cc(Br)ccc1O` [Compound No. 213] the same measures were 85.1% and 89.4%. With `CC(=O)c1sc(NC(=O)c2cc(Br)ccc2O)nc1-c1ccccc1` [Compound No. 214, 5-Bromo-N-(5-acetyl-4-phenylthiazol-2-yl)-2-hydroxybenzamide], the inhibition at 1 µg/mL amounted to 70.2% and the inhibition at 10 µg/mL was found to be 95.9%. For the compound `O=C(Nc1nc(-c2ccccc2)c(C(=O)c2ccccc2)s1)c1cc(Br)ccc1O` [Compound No. 215, 5-Bromo-N-(5-benzoyl-4-phenylthiazol-2-yl)-2-hydroxybenzamide], the inhibition at 1 µg/mL is 90.7% and the inhibition at 10 µg/mL came out at 97.3%.

As to `CCOC(=O)c1sc(NC(=O)c2cc(Br)ccc2O)nc1-c1ccccc1` [Compound No. 216, 2-(5-bromo-2-hydroxybenzoyl)amino-4-phenylthiazole-5-carboxylic acid ethyl ester], the inhibition at 1 µg/mL is 55.8% and the inhibition at 10 µg/mL is 82.8%. With `CCOC(=O)c1sc(NC(=O)c2cc(Cl)ccc2O)nc1-c1ccccc1` [Compound No. 218], the “Inhibitory Ratio of NF-κ B Activation(%) Drug Concentration 1 μg/mL” value was found to be 80.7% and the “Inhibitory Ratio of NF-κ B Activation(%) Drug Concentration 10 μg/mL” value amounted to 94.2%. `CCOC(=O)c1sc(NC(=O)c2cc(Br)ccc2O)nc1-c1c(F)c(F)c(F)c(F)c1F` [Compound No. 219, Ethyl 2-(5-bromo-2-hydroxybenzoyl)amino-4-(pentafluorophenyl)thiazole-5-carboxylate]: the inhibition at 1 µg/mL was 82.2% and the inhibition at 10 µg/mL amounted to 96%. Turning to `CNC(=O)c1sc(NC(=O)c2cc(Br)ccc2O)nc1-c1ccccc1` [Compound No. 220], the “Inhibitory Ratio of NF-κ B Activation(%) Drug Concentration 1 μg/mL” value was 50.8% and the “Inhibitory Ratio of NF-κ B Activation(%) Drug Concentration 10 μg/mL” value was 58.6%.

Take `CCNC(=O)c1sc(NC(=O)c2cc(Br)ccc2O)nc1-c1ccccc1` [Compound No. 221]: the “Inhibitory Ratio of NF-κ B Activation(%) Drug Concentration 1 μg/mL” value was determined as 51.9% and the “Inhibitory Ratio of NF-κ B Activation(%) Drug Concentration 10 μg/mL” value turned out to be 84.0%. For `CC(C)NC(=O)c1sc(NC(=O)c2cc(Br)ccc2O)nc1-c1ccccc1` [Compound No. 222] the same measures were 49.6% and 91.3%. For `O=C(Nc1nc(-c2ccccc2)c(C(=O)NCCc2ccccc2)s1)c1cc(Br)ccc1O` [Compound No. 223], in that order: 33.3% and 60.4%. For `CCOC(=O)c1sc(NC(=O)c2cc(Br)ccc2O)nc1C(F)(F)F` [Compound No. 224] the same measures were 87.6% and 96.5%.

Take `CCOC(=O)c1sc(NC(=O)c2cc(-c3ccc(F)cc3)ccc2O)nc1-c1ccccc1` [Compound No. 226]: the “Inhibitory Ratio of NF-κ B Activation(%) Drug Concentration 1 μg/mL” value is reported as 45.0% and the “Inhibitory Ratio of NF-κ B Activation(%) Drug Concentration 10 μg/mL” value is 85.8%.

Take `CCOC(=O)c1sc(NC(=O)c2cc(-c3ccc(F)cc3F)ccc2O)nc1-c1ccccc1` [Compound No. 227]: the “Inhibitory Ratio of NF-κ B Activation(%) Drug Concentration 1 μg/mL” value came out at 31.8% and the “Inhibitory Ratio of NF-κ B Activation(%) Drug Concentration 10 μg/mL” value stood at 90.3%. For `CCOC(=O)c1sc(NC(=O)c2cc(-n3cccc3)ccc2O)nc1-c1ccccc1` [Compound No. 229], in that order: 74.0% and 90.1%.

Take `CCOC(=O)c1sc(NC(=O)c2cc(-c3cccs3)ccc2O)nc1-c1ccccc1` [Compound No. 230, 2-[2-Hydroxy-5-(2-thienyl)benzoyl]amino-4-phenylthiazole-5-carboxylic acid ethyl ester]: the inhibition at 1 µg/mL is 40.8% and the inhibition at 10 µg/mL is 84.8%.

Consider `O=C(Nc1nc(-c2cc(C(F)(F)F)cc(C(F)(F)F)c2)cs1)c1cc(Cl)ccc1O` [Compound No. 231, 5-Chloro-2-hydroxy-N-{4-[3,5-bis(trifluoromethyl)phenyl]thiazol-2-yl}benzamide], for which the inhibition at 1 µg/mL was 95.9% and the inhibition at 10 µg/mL is 94.5%. For the compound `CCOC(=O)c1c(NC(=O)c2cc(Cl)ccc2O)sc2c1CCCC2` [Compound No. 232], the “Inhibitory Ratio of NF-κ B Activation(%) Drug Concentration 1 μg/mL” value was 88.2% and the “Inhibitory Ratio of NF-κ B Activation(%) Drug Concentration 10 μg/mL” value worked out at 85.4%. On to `O=C(Nc1cc(-c2ccccc2)[nH]n1)c1cc(Br)ccc1O` [Compound No. 233], for which the “Inhibitory Ratio of NF-κ B Activation(%) Drug Concentration 1 μg/mL” value is listed as 26.6% and the “Inhibitory Ratio of NF-κ B Activation(%) Drug Concentration 10 μg/mL” value is given as 84.7%. Take `CCc1nc(NC(=O)c2cc(Br)ccc2O)oc1CC` [Compound No. 234, 5-Bromo-N-(4,5-diethyloxazol-2-yl)-2-hydroxybenzamide]: the inhibition at 1 µg/mL worked out at 29.1% and the inhibition at 10 µg/mL is 63.1%. With `O=C(Nc1nc(-c2ccccc2)c(-c2ccccc2)o1)c1cc(Br)ccc1O` [Compound No. 235], the “Inhibitory Ratio of NF-κ B Activation(%) Drug Concentration 10 μg/mL” value turned out to be 81.8%. As for `O=C(Nc1nc(-c2ccco2)c(-c2ccco2)o1)c1cc(Br)ccc1O` [Compound No. 236, 5-Bromo-N-[4,5-bis(furan-2-yl)oxazol-2-yl]-2-hydroxybenzamide], the inhibition at 1 µg/mL turned out to be 21.4% and the inhibition at 10 µg/mL is 56%.

As for `O=C(Nc1nnc(C(F)(F)F)s1)c1ccccc1O` [Compound No. 237, 2-Hydroxy-N-(5-trifluoromethyl-1,3,4-thiadiazol-2-yl)benzamide], the inhibition at 10 µg/mL is 81.9%. Take `O=C(Nc1nnc(C(F)(F)F)s1)c1cc(Br)ccc1O` [Compound No. 238]: the “Inhibitory Ratio of NF-κ B Activation(%) Drug Concentration 1 μg/mL” value is reported as 26.1% and the “Inhibitory Ratio of NF-κ B Activation(%) Drug Concentration 10 μg/mL” value amounted to 90.3%.

`COc1cc(Cl)nc(NC(=O)c2cc(Cl)ccc2O)n1` [Compound No. 241]: the “Inhibitory Ratio of NF-κ B Activation(%) Drug Concentration 1 μg/mL” value came out at 25.5% and the “Inhibitory Ratio of NF-κ B Activation(%) Drug Concentration 10 μg/mL” value stood at 78.9%.
